Measurements published in BindingDB's records for doi:10.1046/j.1468-2982.2001.00157.x (Roche Bioscience, 2001).
pKi: −log10 of the molar value.

Legend:
[1] = target: 5-hydroxytryptamine receptor 2A (Rattus norvegicus, UniProt P14842)
[2] = target: 5-hydroxytryptamine receptor 7 (Rattus norvegicus, UniProt P32305)
[3] = target: 5-hydroxytryptamine receptor 1B (Rattus norvegicus, UniProt P28564)
[4] = target: T1, 5-hydroxytryptamine receptor 3A (Rattus norvegicus, UniProt P35563)
T1 sequence (P35563 whole entry): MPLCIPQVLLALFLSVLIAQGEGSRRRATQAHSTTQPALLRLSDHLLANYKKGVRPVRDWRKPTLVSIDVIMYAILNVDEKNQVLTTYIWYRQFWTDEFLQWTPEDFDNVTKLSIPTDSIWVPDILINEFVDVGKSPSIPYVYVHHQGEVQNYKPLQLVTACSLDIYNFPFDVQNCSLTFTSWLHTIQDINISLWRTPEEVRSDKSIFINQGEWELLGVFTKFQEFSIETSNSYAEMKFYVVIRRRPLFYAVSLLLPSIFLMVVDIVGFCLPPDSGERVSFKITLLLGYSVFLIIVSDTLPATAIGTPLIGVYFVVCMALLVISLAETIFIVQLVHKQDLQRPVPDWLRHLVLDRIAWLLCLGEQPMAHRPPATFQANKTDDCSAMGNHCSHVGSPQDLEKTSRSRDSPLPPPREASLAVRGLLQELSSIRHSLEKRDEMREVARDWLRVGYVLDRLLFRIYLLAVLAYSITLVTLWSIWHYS

[5] = target: 5-hydroxytryptamine receptor 1D (Rattus norvegicus, UniProt P28565)
Sequence of 5-hydroxytryptamine receptor 1D (P28565 whole entry): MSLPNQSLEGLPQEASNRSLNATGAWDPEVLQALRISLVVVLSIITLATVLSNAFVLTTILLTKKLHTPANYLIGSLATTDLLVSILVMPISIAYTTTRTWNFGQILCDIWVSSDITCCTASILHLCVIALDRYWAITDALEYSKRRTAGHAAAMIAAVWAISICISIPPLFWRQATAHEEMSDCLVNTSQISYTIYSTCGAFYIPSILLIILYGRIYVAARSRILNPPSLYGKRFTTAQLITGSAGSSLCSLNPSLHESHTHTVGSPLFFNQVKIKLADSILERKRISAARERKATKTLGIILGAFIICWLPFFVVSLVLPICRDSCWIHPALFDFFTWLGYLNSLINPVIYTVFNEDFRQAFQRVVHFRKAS

[6] = target: 5-hydroxytryptamine receptor 6 (Rattus norvegicus, UniProt P31388)
Sequence of 5-hydroxytryptamine receptor 6 (P31388 whole entry): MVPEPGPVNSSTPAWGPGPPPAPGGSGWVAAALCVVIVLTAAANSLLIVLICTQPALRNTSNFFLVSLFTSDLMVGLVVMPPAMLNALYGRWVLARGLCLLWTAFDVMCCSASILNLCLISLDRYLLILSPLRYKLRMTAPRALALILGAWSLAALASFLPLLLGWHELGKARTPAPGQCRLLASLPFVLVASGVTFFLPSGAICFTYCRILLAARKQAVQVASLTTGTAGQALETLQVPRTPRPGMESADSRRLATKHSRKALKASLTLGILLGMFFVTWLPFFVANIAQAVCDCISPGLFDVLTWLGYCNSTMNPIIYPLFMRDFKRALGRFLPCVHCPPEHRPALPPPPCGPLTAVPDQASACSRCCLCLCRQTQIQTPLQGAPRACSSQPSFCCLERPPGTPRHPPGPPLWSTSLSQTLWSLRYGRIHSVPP

Sequence of 5-hydroxytryptamine receptor 7 (P32305 whole entry): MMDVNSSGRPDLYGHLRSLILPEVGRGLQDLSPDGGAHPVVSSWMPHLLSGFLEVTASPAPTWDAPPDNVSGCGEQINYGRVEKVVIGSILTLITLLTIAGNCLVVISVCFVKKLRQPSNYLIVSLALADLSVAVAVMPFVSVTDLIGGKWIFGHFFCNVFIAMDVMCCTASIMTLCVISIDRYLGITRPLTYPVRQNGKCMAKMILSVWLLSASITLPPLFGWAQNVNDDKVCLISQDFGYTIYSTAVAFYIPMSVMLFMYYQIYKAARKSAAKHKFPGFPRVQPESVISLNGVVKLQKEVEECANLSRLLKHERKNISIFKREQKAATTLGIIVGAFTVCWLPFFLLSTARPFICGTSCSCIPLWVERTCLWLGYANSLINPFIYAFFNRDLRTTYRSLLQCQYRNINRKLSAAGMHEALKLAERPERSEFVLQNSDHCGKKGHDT
Sequence of 5-hydroxytryptamine receptor 1B (P28564 whole entry): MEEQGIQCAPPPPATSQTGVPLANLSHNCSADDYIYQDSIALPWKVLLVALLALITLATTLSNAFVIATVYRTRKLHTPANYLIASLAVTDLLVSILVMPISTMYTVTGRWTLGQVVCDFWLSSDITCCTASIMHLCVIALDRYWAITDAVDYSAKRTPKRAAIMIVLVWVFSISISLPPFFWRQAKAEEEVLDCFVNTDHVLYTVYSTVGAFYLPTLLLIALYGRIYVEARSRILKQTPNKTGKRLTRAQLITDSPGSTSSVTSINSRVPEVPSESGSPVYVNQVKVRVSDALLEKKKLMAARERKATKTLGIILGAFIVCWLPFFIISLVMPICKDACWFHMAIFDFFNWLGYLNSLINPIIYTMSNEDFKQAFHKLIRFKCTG
Sequence of 5-hydroxytryptamine receptor 2A (P14842 whole entry): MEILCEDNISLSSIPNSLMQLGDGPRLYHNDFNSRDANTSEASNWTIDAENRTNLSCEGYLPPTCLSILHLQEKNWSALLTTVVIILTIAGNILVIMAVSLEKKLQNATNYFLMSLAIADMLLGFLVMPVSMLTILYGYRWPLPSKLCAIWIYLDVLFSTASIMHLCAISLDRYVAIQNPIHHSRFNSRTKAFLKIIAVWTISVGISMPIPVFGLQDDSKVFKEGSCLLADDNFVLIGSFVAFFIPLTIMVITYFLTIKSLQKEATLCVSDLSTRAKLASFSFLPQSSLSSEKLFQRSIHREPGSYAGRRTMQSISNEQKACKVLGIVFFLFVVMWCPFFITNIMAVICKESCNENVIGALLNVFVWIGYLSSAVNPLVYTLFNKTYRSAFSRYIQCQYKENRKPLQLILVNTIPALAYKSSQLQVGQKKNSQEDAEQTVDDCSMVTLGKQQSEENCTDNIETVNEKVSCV

`Clc1cccc(N2CCNCC2)c1` [mCPP] was tested, and the pKi [1] was 6.70, the pKi [2] was 6.60 and the pKi [3] was 6.60. For the same compound, the pKi [4] was 7.00, the pKi [5] was 5.80 and the pKi [6] was 5.60.
